The text below walks through data of patent US20120053220A1, “NOVEL LIPOXYGENASE INHIBITORS AS NEUROPROTECTIVE AGENTS” (The General Hospital Corporation d/b/a Massachusetts …, priority 2007, published 2012).

Assay [1] can be described thus: antioxidant test: quenching of the stable free radical DPPH. To be noted: 5 μM test compound, 500 μM DPPH, absorbance 517 nm; FIG. 1B. As for the experimental part:
The rate of reaction is proportional to the antioxidant potency of the test compounds. A known free radical scavenger, nordihydroguaiaretic acid (NDGA), was used as a positive control. 10 μL, of 1 mM testing reagents to achieve final concentrations of 5 μM were added to 2 mL of 500 μM DPPH stirring in a cuvette.

The target of another assay is T1, 15-hLOX-1 (Homo sapiens, UniProt P16050).
T1 sequence (P16050 1-662): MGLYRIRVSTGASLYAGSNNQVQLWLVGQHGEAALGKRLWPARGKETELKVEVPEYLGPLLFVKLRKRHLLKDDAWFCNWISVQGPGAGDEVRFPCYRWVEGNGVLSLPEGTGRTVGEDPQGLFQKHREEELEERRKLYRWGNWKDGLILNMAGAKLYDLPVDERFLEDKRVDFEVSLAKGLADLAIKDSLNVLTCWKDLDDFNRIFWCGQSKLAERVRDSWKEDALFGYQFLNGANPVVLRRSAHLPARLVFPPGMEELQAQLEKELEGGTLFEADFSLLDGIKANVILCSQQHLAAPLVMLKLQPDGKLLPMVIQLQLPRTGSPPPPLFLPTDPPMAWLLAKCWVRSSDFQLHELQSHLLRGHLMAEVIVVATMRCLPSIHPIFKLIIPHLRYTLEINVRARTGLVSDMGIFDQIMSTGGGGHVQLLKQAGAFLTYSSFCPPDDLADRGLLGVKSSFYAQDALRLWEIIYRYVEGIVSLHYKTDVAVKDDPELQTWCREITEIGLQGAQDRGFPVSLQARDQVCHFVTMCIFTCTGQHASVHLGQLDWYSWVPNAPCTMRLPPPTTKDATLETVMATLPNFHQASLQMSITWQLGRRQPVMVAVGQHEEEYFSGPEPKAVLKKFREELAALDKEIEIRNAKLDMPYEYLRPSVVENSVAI
To be noted: natural products known to inhibit 15-hLOX-1; read-out: IC50 against 15-hLOX-1; cited from earlier work.

On to `CC(Cc1ccc(O)c(O)c1)C(C)Cc1ccc(O)c(O)c1` (centres unmarked) [NDGA, nordihydroguaiaretic acid], for which the “antioxidant activity (quenching of DPPH radical)” value in assay [1] was “rapid quenching”.

`C[C@H]1[C@H](C)CC[C@]2(C)CC[C@]3(C)C(=CC[C@@H]4[C@@]5(C)CC[C@@H](O)[C@](C)(C(=O)O)[C@@H]5CC[C@]43C)[C@H]12` [boswellic acid]: the IC50 (as a rule, the point on the concentration scale where inhibition reaches its midpoint) at 15-hLOX-1 is 1000 nM.
